Assay results: patent US20250082633A1, “COMPOUNDS AND METHODS FOR MODULATING SPLICING” (REMIX THERAPEUTICS INC., priority 2021, published 2025)
Like-named read-outs stand apart in the source and are kept apart here.

Legend:
HTT mRNA = assay: RT-qPCR splicing assay, HTT canonical (CJ) and alternative (AJ) junction mRNA; assay type: cell-based; details: Homo sapiens; for IC50: read-out: HTT CJ IC50; for AC50: increase in alternative junction mRNA, read-out: HTT AJ AC50
Description: (§1) Compounds described herein were used to modulate RNA transcript abundance in cells. The expression of a target mRNA was measured by detecting the formation of an exon-exon junction in the canonical transcript (CJ). A compound mediated exon-inclusion event was detected by observing an increase in formation of a new junction with an alternative exon (AJ). Real-time qPCR assays were used to detect these splicing switches and interrogate the potency of various compounds towards different target genes. A high-throughput real time quantitative PCR (RT-qPCR) assay was developed to measure these two isoforms of the mRNA (CJ and AJ) for exemplary genes, such as HTT, SMN2, and MYB, together with a control housekeeping gene, GAPDH or GUSB or PPIA, used for normalization. Briefly, the A673 or K562 cell line was treated with various compounds described herein (e.g., compounds of Formula (I)). After treatment, the levels of the HTT, MYB, or SMN2 mRNA targets were determined from each sample of cell lysate by cDNA synthesis followed by qPCR.
• Cells-to-CT 1-step kit: ThermoFisher A25602, Cells-to-CT lysis reagent: ThermoFisher 4391851C, TaqMan™ Fast Virus 1-Step Master Mix: ThermoFisher 4444436 • GAPDH: VIC-PL, ThermoFisher 4326317E (Assay: Hs99999905_m1)—used for K562/suspension cell lines • GUSB: VIC-PL, ThermoFisher 4326320E (Assay: Hs99999908_m1)—used for K562/suspension cell lines • PPIA: VIC-PL, ThermoFisher 4326316E (Assay: Hs99999904_m1)—used for A673/adherent cell lines
(§2) The A673 cell line was cultured in DMEM with 10% FBS. Cells were diluted with full growth media and plated in a 96-well plate (15,000 cells in 100 ul media per well). The plate was incubated at 37° C. with 5% CO2 for 24 hours to allow cells to adhere. An 11-point 3-fold serial dilution of the compounds was made in DMSO then diluted in media in an intermediate plate. Compounds were transferred from the intermediate plate to the cell plate with the top dose at a final concentration of 10 uM in the well. Final DMSO concentration was kept at or below 0.25%. The cell plate was returned to the incubator at 37° C. with 5% CO2 for an additional 24 hours.
(§3) The K562 cell line was cultured in IMDM with 10% FBS. For K562, cells were diluted with full growth media and plated in either a 96-well plate (50,000 cells in 50 uL media per well) or a 384-well plate (8,000-40,000 cells in 45 uL media per well). An 11-point 3-fold serial dilution of the compounds were made in DMSO then diluted in media in an intermediate plate. Compound was transferred from the intermediate plate to the cell plate with the top dose at a final concentration of 10 uM in the well. Final DMSO concentration was kept at or below 0.25%. Final volume was 100 uL for 96-well plate and 50 uL for 384-well plate. The cell plate was then placed in an incubator at 37° C. with 5% CO2 for 24 hours.
(§4) The cells were then gently washed with 50 uL-100 uL cold PBS before proceeding to addition of lysis buffer. 30 uL-50 μL of room temperature lysis buffer with DNAse I (and optionally RNAsin) was added to each well. Cells were shaken/mixed thoroughly at room temperature for 5-10 minutes for lysis to take place and then 3 uL-5 μL of room temperature stop solution was added and wells were shaken/mixed again. After 2-5 minutes, the cell lysate plate was transferred to ice for RT-qPCR reaction setup. The lysates could also be frozen at −80° C. for later use.
In some cases, a direct lysis buffer was used. An appropriate volume of 3× lysis buffer (10 mM Tris, 150 mM NaCl, 1.5%-2.5% Igepal and 0.1-1 U/uL RNAsin, pH 7.4) was directly added to either K562 or A673 cells in media and mixed by pipetting 3 times. The plates were then incubated at room temperature with shaking/rocking for 20-50 minutes to allow for lysis to take place. After this time, the cell lysate plate was transferred to ice to set up for the RT-qPCR reactions. The lysates could also be frozen at −80° C. for later use. […]

Target C = assay: RT-qPCR splicing assay, gene panel, Target C canonical junction (CJ) mRNA; assay type: cell-based; details: Homo sapiens; decrease in CJ mRNA levels; larger panel of genes; Table 3; read-out: Target C CJ IC50
Description: as §1, §2, §3, §4
In some cases, a direct lysis buffer was used. An appropriate volume of 3× lysis buffer (10 mM Tris, 150 mM NaCl, 1.5%-2.5% Igepal and 0.1-1 U/uL RNAsin, pH 7.4) was directly added to either K562 or A673 cells in media and mixed by pipetting 3 times. The plates were then incubated at room temperature with shaking/rocking for 20-50 minutes to allow for lysis to take place. After this time, the cell lysate plate was transferred to ice to set up for the RT-qPCR reactions. The lysates could also be frozen at −80° C. for later use.
To set up 10 uL RT-qPCR reactions, cell lysates were transferred to 384-well qPCR plates containing the master mix according to the table below. The plates were sealed, gently vortexed, and spun down before the run. The volumes were adjusted accordingly in some instances where the reaction was carried in 20 μL. The table below summarizes the components of the RT-qPCR reactions:
The RT-qPCR reaction was performed using a QuantStudio (ThermoFisher) under the following fast cycling conditions. […]

[1] = decrease in CJ mRNA levels, larger panel of genes, Table 3
[2] = decrease in canonical junction mRNA, A673 or K562 cells, 24 hours treatment, Table 2
[3] = A673 or K562 cells, 24 hours treatment, Table 2

| SMILES | IC50 (HTT mRNA; [1]) | IC50 (HTT mRNA; [2]) | AC50 (HTT mRNA; [3]) | IC50 (Target C) |
| --- | --- | --- | --- | --- |
| CCN1CCC(n2cc3cc(-c4cc(C)c5nc(C)cn5n4)cc(F)c3n2)CC12CC2 (stereo not drawn) [Compound 177, 6-[2-(4-ethyl-4-azaspiro[2.5]octan-7-yl)-7-fluoro-indazol-5-yl]-2,8-dimethyl-imidazo[1,2-b]pyridazine] | < 100 nM | < 100 nM | < 100 nM | < 100 nM |
| Cc1ccc2cc(-c3cc(F)c4nn(C5CCNCC5)cc4c3)ccc2n1 [Compound 163, 6-[7-fluoro-2-(4-piperidyl)indazol-5-yl]-2-methyl-quinoline] | > 10000 nM | > 10000 nM | > 10000 nM | > 10000 nM |
| Cc1cc(-c2cc(F)c3nn(C4CCNCC4)cc3c2)cc2cn(C)nc12 [Compound 133, 5-(2,7-dimethylindazol-5-yl)-7-fluoro-2-(4-piperidyl)indazole] | < 100 nM | < 100 nM | < 100 nM | 100 to 1000 nM |
| CCN1CCC(n2cc3cc(-c4cc(F)c5nn(C)cc5c4)cc(F)c3n2)CC1 [Compound 104, 2-(1-ethyl-4-piperidyl)-7-fluoro-5-(7-fluoro-2-methyl-indazol-5-yl)indazole] | 100 to 1000 nM | 100 to 1000 nM | 100 to 1000 nM | 1000 to 10000 nM |
| Cc1cn2nc(-c3cc(F)c4nn(C5CCNC6(CC6)C5)cc4c3)cc(C)c2n1 (stereo not drawn) [Compound 171, 6-[2-(4-azaspiro[2.5]octan-7-yl)-7-fluoro-indazol-5-yl]-2,8-dimethyl-imidazo[1,2-b]pyridazine] | < 100 nM | < 100 nM | < 100 nM | < 100 nM |
| Cc1cn2cc(-c3cc(F)c4nn(C5CCNCC5)cc4c3)cc(C)c2n1 [Compound 125, 5-(2,8-dimethylimidazo[1,2-a]pyridin-6-yl)-7-fluoro-2-(4-piperidyl)indazole] | 100 to 1000 nM | 100 to 1000 nM | 100 to 1000 nM | 100 to 1000 nM |
| Cc1cn2nc(-c3cc(F)c4nn(C5CCNC6(CCC6)C5)cc4c3)cc(C)c2n1 (stereo not drawn) [Compound 189, 6-[2-(5-azaspiro[3.5]nonan-8-yl)-7-fluoro-indazol-5-yl]-2,8-dimethyl-imidazo[1,2-b]pyridazine] | < 100 nM | < 100 nM | < 100 nM | 100 to 1000 nM |
| Cc1cn2nc(-c3cc(F)c4nn(C5CCNCC5F)cc4c3)cc(C)c2n1 (stereo not drawn) [Compound 166, 6-[7-fluoro-2-(3-fluoro-4-piperidyl)indazol-5-yl]-2,8-dimethyl-imidazo [1,2-b]pyridazine] | < 100 nM | < 100 nM | < 100 nM | 100 to 1000 nM |
| Cn1cc2cc(-c3ccc4nn(C5CCNCC5)cc4n3)c(O)c(F)c2n1 [Compound 107, 7-fluoro-2-methyl-5-[2-(4-piperidyl)pyrazolo [4,3-b]pyridin-5-yl]indazol-6-ol] | 100 to 1000 nM | 100 to 1000 nM | 100 to 1000 nM | 100 to 1000 nM |
| Cc1cn2nc(-c3ccc4nn(C5CCNCC5)cc4n3)cc(C)c2n1 [Compound 138, 2,8-dimethyl-6-[2-(4-piperidyl)pyrazolo[4,3-b]pyridin-5-yl]imidazo[1,2-b]pyridazine] | < 100 nM | < 100 nM | 100 to 1000 nM | 100 to 1000 nM |
| Cn1cc2cc(-c3ccc4cn(C5CCNCC5)nc4c3)cc(F)c2n1 [Compound 148, 7-fluoro-2-methyl-5-[2-(4-piperidyl)indazol-6-yl]indazole] | 1000 to 10000 nM | 1000 to 10000 nM | > 10000 nM | > 10000 nM |
| Cn1cc2cc(-c3cc(Cl)c4nn(C5CCNCC5)cc4n3)c(O)cc2n1 [Compound 141] | > 10000 nM | > 10000 nM | > 10000 nM | > 10000 nM |
| Cc1cn2cc(-c3cc(F)c4nn(C5CCNCC5)cc4c3)nc(C)c2n1 [Compound 132, 6-[7-fluoro-2-(4-piperidyl)indazol-5-yl]-2,8-dimethyl-imidazo[1,2-a]pyrazine] | 100 to 1000 nM | 100 to 1000 nM | 100 to 1000 nM | 1000 to 10000 nM |
| Cc1cn2nc(-c3cc4cn(C5CCNCC5)nc4c(O)n3)cc(C)c2n1 [Compound 139, 5-(2,8-dimethylimidazo[1,2-b]pyridazin-6-yl)-2-(4-piperidyl)-6H-pyrazolo[3,4-c]pyridin-7-one] | < 100 nM | < 100 nM | < 100 nM | 100 to 1000 nM |
| Cn1cc2cc(-c3ccc4nn(C5CCNCC5)cc4n3)c(O)cc2n1 [Compound 110, 2-methyl-5-[2-(4-piperidyl)pyrazolo[4,3-b]pyridin-5-yl]indazol-6-ol] | 100 to 1000 nM | 100 to 1000 nM | 1000 to 10000 nM | 1000 to 10000 nM |
| COc1cc(-c2cc(C)c3nc(C)cn3n2)cc2cn(C3CCNCC3)nc12 [Compound 155, 6-(7-methoxy-2-(piperidin-4-yl)-2H-indazol-5-yl)-2,8-dimethylimidazo [1,2-b]pyridazine] | < 100 nM | < 100 nM | 100 to 1000 nM | 100 to 1000 nM |
| Fc1cc(-c2ccc3ncccc3c2)cc2cn(C3CCNCC3)nc12 [Compound 162, 6-[7-fluoro-2-(4-piperidyl)indazol-5-yl]quinoline] | > 10000 nM | > 10000 nM | > 10000 nM | > 10000 nM |
| Cc1ccc2nc(-c3cc(F)c4nn(C5CCNCC5)cc4c3)ccc2n1 [Compound 157, 2-[7-fluoro-2-(4-piperidyl)indazol-5-yl]-6-methyl-1,5-naphthyridine] | > 10000 nM | > 10000 nM | > 10000 nM | > 10000 nM |
